The record followed here is patent US10973748B2, “Compositions and methods for lightening skin and reducing hyperpigmentation” (Versitech Limited, priority 2016, dated 2021).

Data set [1] deals with MelanoDerm (Mel-300-A) epidermal equivalents containing melanocytes. Kind of data set: Fontana-Masson silver staining of artificial skin model. The class given is cell-based, human. Conditions: day 14, rapamycin 2.5 μM, 6-CEPN 10 μM. As for the experimental part:
(§1) Epidermal equivalents containing melanocytes (Mel-300-A) were maintained according to the manufacturer's instructions. Mel-300-A tissue was cultured in EPI-100-NMM-113 medium for 14 days. Agents were dissolved in tissue culture medium and changed every other day. The test agents were either (1) rapamycin (2.5 μM), as the positive control in depigmentation, (2) 6-CEPN (10 μM), or (3) 8-CEPQ (5 μM). The concentration of rapamycin used was lower than 6-CEPN and 8-CEPQ, as rapamycin is toxic to cells at higher concentration. Pigmentation of these skin equivalents was compared against treatment of cells with a culture medium only (denoted as “vehicle”). Tissue viability was assessed on day 14 by CCK-8 assay as described in Example 1. On day 14, single tissues were harvested and photographed. The L* parameter was used to evaluate skin lightening or darkening. The lighter the skin, the greater the L* value. ΔL* value was measured by a Chroma Meter CR400 (Konica Minolta) for an evaluation of lightening as a function of time. Three tissues for each treatment were frozen for the Solvable Melanin assay (Bessou-Touya et al., “Chimeric human epidermal reconstructs to study the role of melanocytes and keratinocytes in pigmentation and photoprotection.” Journal of investigative dermatology 111(6):1103-1108 (1998)). Additional tissues were fixed by 10% formanin. For melanin staining in paraffin-embedded tissues, Fontana-Masson silver staining was used as previously detailed (Barbosa et al., “A simple and economical modification of the Masson-Fontana method for staining melanin granules and enterochromaffin cells.” Stain technology 59(4):193-196 (1984)).

Data set [2] shares this test system. Kind of data set: Tissue viability of artificial skin model (CCK-8). The class given is cell-based, human. Conditions: whole treatment period (14 days), rapamycin 2.5 μM, 6-CEPN 10 μM, 8-CEPQ 5 μM. The procedure:
as §1

Data set [3] shares this test system. Put plainly: Solvable Melanin assay in artificial skin model. The class given is cell-based, human. The conditions noted are these: 14 days, rapamycin 2.5 μM, 6-CEPN 10 μM, 8-CEPQ 5 μM. The procedure:
Epidermal equivalents containing melanocytes (Mel-300-A) were maintained according to the manufacturer's instructions. Mel-300-A tissue was cultured in EPI-100-NMM-113 medium for 14 days. Agents were dissolved in tissue culture medium and changed every other day. The test agents were either (1) rapamycin (2.5 μM), as the positive control in depigmentation, (2) 6-CEPN (10 μM), or (3) 8-CEPQ (5 μM). The concentration of rapamycin used was lower than 6-CEPN and 8-CEPQ, as rapamycin is toxic to cells at higher concentration. Pigmentation of these skin equivalents was compared against treatment of cells with a culture medium only (denoted as “vehicle”). Tissue viability was assessed on day 14 by CCK-8 assay as described in Example 1. On day 14, single tissues were harvested and photographed. The L* parameter was used to evaluate skin lightening or darkening. The lighter the skin, the greater the L* value. ΔL* value was measured by a Chroma Meter CR400 (Konica Minolta) for an evaluation of lightening as a function of time. Three tissues for each treatment were frozen for the Solvable Melanin assay (Bessou-Touya et al., “Chimeric human epidermal reconstructs to study the role of melanocytes and keratinocytes in pigmentation and photoprotection.” Journal of investigative dermatology 111(6):1103-1108 (1998)). Additional tissues were fixed by 10% formanin. […]

Data set [4] shares this test system. Put plainly: Depigmentation in artificial skin model: brightness and L* value. The class given is cell-based, human. The conditions noted are these: 6-CEPN 10 μM, 8-CEPQ 5 μM. The procedure:
as §1

The next data set has as its system melan-a cells. Put plainly: Melanosome autophagy by fluorescence microscopy. The class given is cell-based, murine. Conditions: α-MSH, rapamycin 0.5 μM 24 hrs, 6-CEPN 10 μM, 8-CEPQ 5 μM 72 hrs. As for the experimental part: Melan-a cells (1.5×10^5 cells/well) were seeded on coverslips in 6-well palte. The cells were treated with (1) α-MSH (1 μM) alone for 24 hrs, (2) α-MSH (1 μM) plus rapamycin (0.5 μM) for 24 hrs, (3) α-MSH (1 μM) plus 6-CEPN (10 μM), or (3) α-MSH (1 μM) plus 8-CEPQ (5 μM) for 72 hrs. Culture medium was removed carefully after the cells reached 50%˜70% level of confluence. Cells were stained by microscopy dual detection reagents (autophagy detection kit, Abcam) for 30 mins at 37° C. The stained cells were analyzed by wide-field fluorescence microscopy (60× magnification). Standard FITC filter and DAPI filter were set to image the autophagic signal and the nuclear signal, respectively.

In the next data set the target is T1, tyrosinase (Mus musculus, UniProt P11344).
T1 construct: endogenous in cells; host or cells: melan-a cells
T1 sequence (P11344 19-533): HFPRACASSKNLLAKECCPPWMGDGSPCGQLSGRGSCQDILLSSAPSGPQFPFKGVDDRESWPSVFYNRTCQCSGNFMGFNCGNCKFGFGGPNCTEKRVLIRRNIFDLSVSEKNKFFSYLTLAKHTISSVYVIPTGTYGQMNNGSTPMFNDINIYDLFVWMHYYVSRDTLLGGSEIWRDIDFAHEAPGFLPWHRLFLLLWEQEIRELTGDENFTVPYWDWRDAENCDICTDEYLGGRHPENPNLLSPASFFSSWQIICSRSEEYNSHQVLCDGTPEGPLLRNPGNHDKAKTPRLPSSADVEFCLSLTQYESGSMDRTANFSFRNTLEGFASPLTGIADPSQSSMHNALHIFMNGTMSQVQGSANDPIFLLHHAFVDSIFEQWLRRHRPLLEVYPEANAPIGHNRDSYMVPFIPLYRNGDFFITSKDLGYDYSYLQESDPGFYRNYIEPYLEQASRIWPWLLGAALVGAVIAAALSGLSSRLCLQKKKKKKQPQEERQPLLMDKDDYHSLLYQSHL
Kind of data set: Cellular tyrosinase activity assay (L-DOPA oxidation in cell lysates). The class given is cell-based, murine. Conditions: melan-a cells, α-MSH, 72 hrs; 6-CEPN 10 or 20 μM, 8-CEPQ 2.5 or 5 μM. The procedure:
Cellular tyrosinase activity was determined by measuring the oxidation of L-3,4-dihydroxyphenylalanine (L-DOPA) to dopachrome in cell lysates. Melan-a cells (1.5×10^5 cells/well) were plated in 1 mL of culture medium in a 24-well multidishes for at least 24 hrs prior to use. The cells were treated with α-MSH (1 μM) alone or with α-MSH plus different concentrations of testing agents for 72 hrs. The cells were washed with cold PBS and lysed in 900 μL of PBS with 1% Triton X-100. After being freeze-thawed at −80° C. for 30 min followed by 25° C. for 30 min, 100 μL of 10 mM L-DOPA was then added to each well. Following incubation at 37° C. for 1 hr, the absorbance of the agents was measured at 490 nm using Victor X4 Multilabel Plate Reader (PerkinElmer, Mass., USA).

As for `CO[C@H]1C[C@@H]2CC[C@@H](C)[C@@](O)(O2)C(=O)C(=O)N2CCCC[C@H]2C(=O)O[C@H]([C@H](C)C[C@@H]2CC[C@@H](O)[C@H](OC)C2)CC(=O)[C@H](C)/C=C(\C)[C@@H](O)[C@@H](OC)C(=O)[C@H](C)C[C@H](C)/C=C/C=C/C=C/1C` [rapamycin, reference compound], the “thickness of basal layer of tissue” value in data set [1] is “thinner than 6-CEPN-treated or non-treated control groups”. Besides, the “cytotoxicity (tissue viability)” value in data set [2] is “without significant cytotoxicity”.

For the molecule `O=c1c(O)c(-c2ccc(O)c(O)c2)oc2c(/C=C/c3ccccc3)c(O)cc(O)c12` [8-CEPQ, 8-C-(E-phenylethenyl)-quercetin], the “amount of melanin in human skin equivalents” value in data set [3] was “significantly inhibited the amount of melanin”. Further, the “brightness of the tissues (visual examination)” value in data set [4] (14 days, rapamycin 2.5 μM) is “increased the brightness of the tissues”. The “L* value vs negative control” value in data set [4] (day 14, rapamycin 2.5 μM) is on record as “increased the L* value”. In the data set with melan-a cells, the melanosome autophagy entry was “induced melanosome autophagy”. The “cytotoxicity (tissue viability)” value in data set [2] is reported as “without significant cytotoxicity”. On tyrosinase, the tyrosinase activity entry is “significant inhibition on tyrosinase activity in a dose-dependent manner”.
